Assay results published in patent US20210290680A1, “METHODS AND COMPOSITIONS FOR MODULATING CELLULAR AGING” (Dorian Therapeutics, Inc., priority 2019, published 2021).

Columns and labels:
NALM cells = assay: Re-challenge cytotoxicity assay, CD19.CAR T cells; type: cell-based, human; conditions: after double tumor-challenge, n=3
Procedure: Primary T cells were activated as described (Example 3), transduced with a lentivirus encoding for either a CD19.CAR or a GD2.CAR co-expressing shUSP16 #1, shUSP16 #2 or a scrambled shRNA (Control). Cells were cultured in IL-2 and sorted between days 6-13 for EGFRt. At day 16 cytotoxicity assays were performed. Briefly, cells were counted and 100,000 T cells (adjusted for EGFR expression) were plated at 1:5 Effector:Target (E:T) ratio. At 72 hours, the mixture of tumor cells and T cells were collected, stained for CD3-PE, CD8-BV510, CD19- or GD2-APC, EGFR-AF488 and Sytox and counted by flow cytometry (MACSQuant, Miltenyi Biotec) (FIGS. 30A and 30B). Counting beads (CountBright Absolute Counting beads, Invitrogen) were added before acquisition and absolute number was calculated as following (number of cell events/number of bead events)×(assigned bead count of the lot (beads/50 ul)/volume of sample (ul))=concentration of sample as cells/ul). NALM cells were used as target cells for CD19.CAR T cells and CHLA-55 cells were used as target for GD2.CAR T cells. Three different primary T cell cultures were tested for CD19 and GD2 CAR.
At day 16, regular cytotoxicity assays were also performed (Example 22). Three days post-antigen stimulation, CD19.CAR T cells were stained for EGFR-AF488 (R&D), CD3-PE, CD8-BV510, PD-1-Allophycocyanin and Lag-3 and CTLA4 (Biolegend) and acquired by MACSQuant (Miltenyi Biotec). The co-cultures we also re-challenged with the addition of fresh tumor cells. T cell killing and expansion upon double tumor-challenge was assessed after three days.

TCF7 = assay: qPCR of WNT pathway regulator TCF7; type: cell-based, human; conditions: for TCF7 expression, fold change vs Control: CD19.CAR; for TCF7 expression, fold change vs Control / TCF7 expression vs Control: day 15, n=4; for TCF7 expression vs Control: GD2.CAR; for TCF7 expression, fold increase over Control: primary T cells, day 15
Description: Primary T cells were activated as described (Example 3), transduced with a lentivirus encoding either a shUSP16 #1, shUSP16 #2 or a non-targeting shRNA (shCtrl) and cells were selected with puromycin at day 6. At day 15 cell were collected and analyzed by qPCR for the expression of LEF1 (FIG. 16A) and TCF7 (FIG. 16B), downstream regulators of the WNT pathway. At day 20, cells were stained for CD4-PE, CD8-BV510, CD62L-Allophycocyanin and CD45RA-APC-Cy7 (Biolegend). Stem cell memory T cells (Tscm) were identified as Sytox^− GFP^+CD45RA^+CD62L^+, central memory T cells (Tcm) as Sytox^−GFP^+CD45RA^−CD62L^+, effector memory T cells (Tem) as Sytox^−GFP^+CD45RA^−CD62L^−, and terminal effector T cell (Teff) as Sytox^−GFP^+CD45RA^+CD62L^− (FIG. 17A). Cells were gated on the CD8 population. The specific increase of Tscm was shown as phenotype ratio (FIG. 17B).
Primary T cells were activated as described (Example 3), transduced with a lentivirus encoding for either a CD19.CAR or a GD2.CAR co-expressing shUSP16 #1, shUSP16 #2 or a scrambled shRNA (Control). Fifteen days post-activation, T cells were collected and qPCR performed. TaqMan probes detecting CDKN1A, CDKN2A (FIGS. 26A and 26B) (fold change GD2.CAR (n=4): CDKN1A Control vs shUSP #1: 0.4360, p<0.0001, and Control vs shUSP16 #2: 3.036, p=0.004 respectively. Fold change CD19.CAR (n=4): CDKN2a, CDKN1A Control vs shUSP #1: 0.6906, p=0.0026; 0.7228, p=0.0297 and Control vs shUSP16 #2: 0.8385, p=0.2325; 0.7017, p=0.0021), TCF7, LEF1, and Axin-2 (FIGS. 27A and B) were analyzed in GD2.CAR and CD19.CAR-expressing cells, respectively. ACTB was used as internal control. (GD2.CAR (n=4) TCF7, LEF1 and Axin-2: Control vs shUSP #1: 1.914 p=0.0512; 1.795 p=0.0323; 3.269 p=0.15 and Control vs shUSP16 #2: 1.284 p=0.0494; 1.718 p=0.0586; 2.035p=0.235, respectively. Fold change CD19.CAR (n=4): TCF7, LEF1 and Axin-2: Control vs shUSP #1: 1.528, p=0.0277; 1.82, p=0.0449; 1.998, p=0.031 and Control vs shUSP16 #2: 1.18, p=0.2002; 1.579, p=0.0632; 1.261, p=0.2382). USP16 downregulation in CAR-T cells results in a decreased expression of senescence markers and an increase in the expression of genes associated with the activation/increased signaling of the WNT pathway, indicating its importance in delaying cellular senescence and increasing self-renewal.

Substance	T cell number (NALM cells)	residual tumor cells (NALM) (NALM cells)	TCF7 expression, fold change vs Control (TCF7)	TCF7 expression vs Control (TCF7)	TCF7 expression, fold increase over Control (TCF7)
shUSP16 #1: shRNA targeting USP16, 5′-GACTGTAAGACTGACAATAAA-3′ (SEQ ID NO: 8), pSIH backbone or co-expressed in CAR plasmid	192643	282761	1.528	1.914	2.804
shUSP16 #2: shRNA targeting USP16, 5′-TATATCAGTTCACCCGTAAT-3′ (SEQ ID NO: 9), pSIH backbone or co-expressed in CAR plasmid	204291	160874	1.18	1.284	1.428
